From PubChem BioAssay AID1963969 (Molecular Pharmacology Branch, DTP, NCI, 2024)
Several values for one entry are separate records, joined by “and”; a condition that tells them apart may be missing. Equal entries are not always repeated.

Test system: 817829-284-R-J1-PDC multi-cell spheroid viability
Test: Anticancer human tumor 817829-284-R-J1-PDC patient-derived colon adenocarcinoma cell line growth inhibition [PI3K]
Conditions: for viability, T/C: stronger effect = lower value
Method in brief: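 High-throughput combination screen: PI3K inhibitors crossed with targeted small molecules on complex spheroids of tumor cells, HUVEC and MSCs at 37 degrees C, 5% CO2. Top concentration was at or near clinical Cmax (otherwise 10 microM), with half-log decrements.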

[1] = curve of first compound, second compound 0.0316 µM
[2] = curve of first compound, second compound 0.1 µM
[3] = curve of first compound, second compound 0.316 µM
[4] = curve of first compound, second compound 1 µM
[5] = curve of first compound, second compound 3.16 µM
[6] = curve of first compound, second compound 10 µM
[7] = second compound 0.0316 µM, first compound 0.0316 µM
[8] = second compound 0.0316 µM, first compound 0.1 µM
[9] = second compound 0.0316 µM, first compound 0.316 µM
[10] = second compound 0.0316 µM, first compound 1 µM
[11] = second compound 0.0316 µM, first compound 3.16 µM
[12] = second compound 0.0316 µM, first compound 10 µM
[13] = second compound 0.1 µM, first compound 0.0316 µM
[14] = second compound 0.1 µM, first compound 0.1 µM
[15] = second compound 0.1 µM, first compound 0.316 µM
[16] = second compound 0.1 µM, first compound 1 µM
[17] = second compound 0.1 µM, first compound 3.16 µM
[18] = second compound 0.1 µM, first compound 10 µM
[19] = second compound 0.316 µM, first compound 0.0316 µM
[20] = second compound 0.316 µM, first compound 0.1 µM
[21] = second compound 0.316 µM, first compound 0.316 µM
[22] = second compound 0.316 µM, first compound 1 µM
[23] = second compound 0.316 µM, first compound 3.16 µM
[24] = second compound 0.316 µM, first compound 10 µM
[25] = second compound 1 µM, first compound 0.0316 µM
[26] = second compound 1 µM, first compound 0.1 µM
[27] = second compound 1 µM, first compound 0.316 µM
[28] = second compound 1 µM, first compound 1 µM
[29] = second compound 1 µM, first compound 3.16 µM
[30] = second compound 1 µM, first compound 10 µM
[31] = second compound 3.16 µM, first compound 0.0316 µM
[32] = second compound 3.16 µM, first compound 0.1 µM
[33] = second compound 3.16 µM, first compound 0.316 µM
[34] = second compound 3.16 µM, first compound 1 µM
[35] = second compound 3.16 µM, first compound 3.16 µM
[36] = second compound 3.16 µM, first compound 10 µM
[37] = second compound 10 µM, first compound 0.0316 µM
[38] = second compound 10 µM, first compound 0.1 µM
[39] = second compound 10 µM, first compound 0.316 µM
[40] = second compound 10 µM, first compound 1 µM
[41] = second compound 10 µM, first compound 3.16 µM
[42] = second compound 10 µM, first compound 10 µM
[43] = second compound 0.0316 µM, first compound 0.000316 µM
[44] = second compound 0.0316 µM, first compound 0.001 µM
[45] = second compound 0.0316 µM, first compound 0.00316 µM
[46] = second compound 0.0316 µM, first compound 0.01 µM
[47] = second compound 0.1 µM, first compound 0.000316 µM
[48] = second compound 0.1 µM, first compound 0.001 µM
[49] = second compound 0.1 µM, first compound 0.00316 µM
[50] = second compound 0.1 µM, first compound 0.01 µM
[51] = second compound 0.316 µM, first compound 0.000316 µM
[52] = second compound 0.316 µM, first compound 0.001 µM
[53] = second compound 0.316 µM, first compound 0.00316 µM
[54] = second compound 0.316 µM, first compound 0.01 µM
[55] = second compound 1 µM, first compound 0.000316 µM
[56] = second compound 1 µM, first compound 0.001 µM
[57] = second compound 1 µM, first compound 0.00316 µM
[58] = second compound 1 µM, first compound 0.01 µM
[59] = second compound 3.16 µM, first compound 0.000316 µM
[60] = second compound 3.16 µM, first compound 0.001 µM
[61] = second compound 3.16 µM, first compound 0.00316 µM
[62] = second compound 3.16 µM, first compound 0.01 µM
[63] = second compound 10 µM, first compound 0.000316 µM
[64] = second compound 10 µM, first compound 0.001 µM
[65] = second compound 10 µM, first compound 0.00316 µM
[66] = second compound 10 µM, first compound 0.01 µM
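Also: spheroids exposed to agents for seven days before readout.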
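For viability, T/C in this document: percent of vehicle DMSO control viability which is 100%.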

Compound: CC(Cn1ccc(-c2ccc(C#N)c(Cl)c2)n1)NC(=O)c1cc(C(C)O)[nH]n1 (configuration not stated) + CC(Nc1ncnc2nc[nH]c12)c1cc2cccc(Cl)c2c(=O)n1-c1ccccc1
- IC50 [1]: > 10000 nM
- IC50 [2]: 8490 nM
- IC50 [3]: > 10000 nM
- IC50 [4]: > 10000 nM
- IC50 [5]: > 10000 nM
- IC50 [6]: > 10000 nM
- viability, T/C [7]: 71.5%
- viability, T/C [8]: 78.8%
- viability, T/C [9]: 98.5%
- viability, T/C [10]: 64.6%
- viability, T/C [11]: 75.5%
- viability, T/C [12]: 75.1%
- viability, T/C [13]: 106%
- viability, T/C [14]: 82.7%
- viability, T/C [15]: 95.7%
- viability, T/C [16]: 83.2%
- viability, T/C [17]: 87.7%
- viability, T/C [18]: 43.4%
- viability, T/C [19]: 109%
- viability, T/C [20]: 82.7%
- viability, T/C [21]: 105%
- viability, T/C [22]: 66.6%
- viability, T/C [23]: 99.8%
- viability, T/C [24]: 66.3%
- viability, T/C [25]: 83.9%
- viability, T/C [26]: 78.8%
- viability, T/C [27]: 100%
- viability, T/C [28]: 74.5%
- viability, T/C [29]: 91.3%
- viability, T/C [30]: 102%
- viability, T/C [31]: 90.9%
- viability, T/C [32]: 53.7%
- viability, T/C [33]: 79.1%
- viability, T/C [34]: 90.4%
- viability, T/C [35]: 47.5%
- viability, T/C [36]: 71.4%
- viability, T/C [37]: 67.6%
- viability, T/C [38]: 48.2%
- viability, T/C [39]: 71.3%
- viability, T/C [40]: 51%
- viability, T/C [41]: 67.5%
- viability, T/C [42]: 40.1%

Compound: CC(=O)c1c(C)c2cnc(Nc3ccc(N4CCNCC4)cn3)nc2n(C2CCCC2)c1=O + Cc1nc(NC(=O)N2CCCC2C(N)=O)sc1-c1ccnc(C(C)(C)C(F)(F)F)c1
- IC50 [1]: 27.2 nM
- IC50 [2]: 4.34 nM
- IC50 [3]: 23.6 nM
- IC50 [4]: 3.26 nM
- IC50 [5]: 2.05 nM
- IC50 [6]: < 0.316 nM
- viability, T/C [43]: 88.4%
- viability, T/C [44]: 96.1%
- viability, T/C [45]: 70.8%
- viability, T/C [46]: 60.1%
- viability, T/C [7]: 52.8%
- viability, T/C [8]: 38.2%
- viability, T/C [47]: 71.2%
- viability, T/C [48]: 79.7%
- viability, T/C [49]: 52.4%
- viability, T/C [50]: 45%
- viability, T/C [13]: 38.1%
- viability, T/C [14]: 47.6%
- viability, T/C [51]: 75.1%
- viability, T/C [52]: 53.8%
- viability, T/C [53]: 65.9%
- viability, T/C [54]: 66.9%
- viability, T/C [19]: 34.7%
- viability, T/C [20]: 44.7%
- viability, T/C [55]: 43.6%
- viability, T/C [56]: 55.4%
- viability, T/C [57]: 51.6%
- viability, T/C [58]: 42.1%
- viability, T/C [25]: 37.3%
- viability, T/C [26]: 37%
- viability, T/C [59]: 62.5%
- viability, T/C [60]: 58.9%
- viability, T/C [61]: 38.3%
- viability, T/C [62]: 49.3%
- viability, T/C [31]: 32%
- viability, T/C [32]: 31.5%
- viability, T/C [63]: 51.8%
- viability, T/C [64]: 43.8%
- viability, T/C [65]: 40.7%
- viability, T/C [66]: 47.5%
- viability, T/C [37]: 43.8%
- viability, T/C [38]: 21.3%

Compound: CCCS(=O)(=O)Nc1ccc(F)c(C(=O)c2c[nH]c3ncc(-c4ccc(Cl)cc4)cc23)c1F + CC(Nc1ncnc2nc[nH]c12)c1cc2cccc(Cl)c2c(=O)n1-c1ccccc1
- IC50 [1]: 4760 nM
- IC50 [2]: 4210 nM
- IC50 [3]: 3330 nM
- IC50 [4]: 4310 nM
- IC50 [5]: 1350 nM
- IC50 [6]: 1790 nM
- viability, T/C [7]: 110%
- viability, T/C [8]: 61.7%
- viability, T/C [9]: 62.3%
- viability, T/C [10]: 52%
- viability, T/C [11]: 90.5%
- viability, T/C [12]: 4.04%
- viability, T/C [13]: 78%
- viability, T/C [14]: 72.6%
- viability, T/C [15]: 72.7%
- viability, T/C [16]: 89%
- viability, T/C [17]: 63.9%
- viability, T/C [18]: 7.99%
- viability, T/C [19]: 98.2%
- viability, T/C [20]: 70%
- viability, T/C [21]: 101%
- viability, T/C [22]: 60.6%
- viability, T/C [23]: 57.8%
- viability, T/C [24]: 4.81%
- viability, T/C [25]: 66.9%
- viability, T/C [26]: 70.5%
- viability, T/C [27]: 87%
- viability, T/C [28]: 38.3%
- viability, T/C [29]: 68.3%
- viability, T/C [30]: 6.14%
- viability, T/C [31]: 114%
- viability, T/C [32]: 89%
- viability, T/C [33]: 68.6%
- viability, T/C [34]: 59%
- viability, T/C [35]: 47.2%
- viability, T/C [36]: 8.3%
- viability, T/C [37]: 72.4%
- viability, T/C [38]: 75.2%
- viability, T/C [39]: 68.9%
- viability, T/C [40]: 49.8%
- viability, T/C [41]: 47.7%
- viability, T/C [42]: 9.39%

Compound: CC(=O)c1c(C)c2cnc(Nc3ccc(N4CCNCC4)cn3)nc2n(C2CCCC2)c1=O + CC(Nc1ncnc2nc[nH]c12)c1cc2cccc(Cl)c2c(=O)n1-c1ccccc1
- IC50 [1]: 70.9 nM
- IC50 [2]: 74 nM
- IC50 [3]: > 100 nM
- IC50 [4]: 71.2 nM
- IC50 [5]: 14.3 nM
- IC50 [6]: 33.4 nM
- viability, T/C [43]: 96%
- viability, T/C [44]: 68.1%
- viability, T/C [45]: 74.3%
- viability, T/C [46]: 75.4%
- viability, T/C [7]: 77%
- viability, T/C [8]: 38.6%
- viability, T/C [47]: 92.5%
- viability, T/C [48]: 79.8%
- viability, T/C [49]: 74.5%
- viability, T/C [50]: 90.2%
- viability, T/C [13]: 79%
- viability, T/C [14]: 39.4%
- viability, T/C [51]: 90.8%
- viability, T/C [52]: 85%
- viability, T/C [53]: 101%
- viability, T/C [54]: 60.2%
- viability, T/C [19]: 56.5%
- viability, T/C [20]: 51.3%
- viability, T/C [55]: 101%
- viability, T/C [56]: 73.1%
- viability, T/C [57]: 78.7%
- viability, T/C [58]: 83.5%
- viability, T/C [25]: 59.8%
- viability, T/C [26]: 43.5%
- viability, T/C [59]: 65%
- viability, T/C [60]: 134%
- viability, T/C [61]: 78.8%
- viability, T/C [62]: 57.5%
- viability, T/C [31]: 37.8%
- viability, T/C [32]: 42.7%
- viability, T/C [63]: 60.1%
- viability, T/C [64]: 54.4%
- viability, T/C [65]: 51%
- viability, T/C [66]: 66.3%
- viability, T/C [37]: 46.6%
- viability, T/C [38]: 34.4%

Compound: CNC(=O)c1ccc(N2C(=S)N(c3ccc(C#N)c(C(F)(F)F)c3)C(=O)C2(C)C)cc1F
- viability, T/C (compound 0.0316 µM): 86.9% and 87.2% and 88.4%
- viability, T/C (compound 0.1 µM): 93.2% and 97.5% and 76.6%
- viability, T/C (compound 0.316 µM): 70.6% and 71.9% and 77.2%
- viability, T/C (compound 1 µM): 99.3% and 68.8% and 80.3%
- viability, T/C (compound 3.16 µM): 84.2% and 97.4% and 67.9%
- viability, T/C (compound 10 µM): 65.4% and 29% and 68.9%
- IC50 (curve of compound): > 10000 nM and 6480 nM

Compound: C=CC(=O)N1CCN(c2nc(=O)n(-c3c(C)ccnc3C(C)C)c3nc(-c4c(O)cccc4F)c(F)cc23)C(C)C1 (configuration not stated)
- viability, T/C (compound 0.0316 µM): 90.5% and 112%
- viability, T/C (compound 0.1 µM): 107% and 70.5%
- viability, T/C (compound 0.316 µM): 70.2% and 97.6%
- viability, T/C (compound 1 µM): 104% and 120%
- viability, T/C (compound 3.16 µM): 85.3% and 104%
- viability, T/C (compound 10 µM): 44.3% and 48.8%
- IC50 (curve of compound): 8660 nM and 9740 nM
